Assay results from US20240262795A1, “PYRAZINE COMPOUNDS AS INHIBITORS OF FLT3” (Biomea Fusion, Inc., priority 2021, published 2024).

Experiments:
K-562 = assay: Proliferation inhibition, CellTiter-Glo, K-562; type: cell-based, human; conditions: Homo sapiens, K562, 96 h; K-562 cells, IC50 (4 days), CellTiter-Glo; read-out: K-562 IC50
How it was run: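 About 10,000 cells per well in RPMI-1640 with 10% FBS. Compounds added 2 h after seeding at eight concentrations in duplicate (0.2% DMSO as 100% proliferation), then incubated ~96 h at 37° C, 5% CO2. ATP measured by CellTiter-Glo luminescence; IC50 from four-parameter logistic fit.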

[1] = biological target: T1, Ba/F3 cell lines stably expressing human FLT3-ITD (Homo sapiens, UniProt P36888, cells depend on it, form not given); assay: FLT3 mutant assay, cell viability, Ba/F3-FLT3-ITD; type: cell-based, mouse; conditions: IC50 (3 days), CellTiter-Glo; read-out: Ba/F3-FLT3-ITD Relative IC50
T1 sequence (P36888 1-993): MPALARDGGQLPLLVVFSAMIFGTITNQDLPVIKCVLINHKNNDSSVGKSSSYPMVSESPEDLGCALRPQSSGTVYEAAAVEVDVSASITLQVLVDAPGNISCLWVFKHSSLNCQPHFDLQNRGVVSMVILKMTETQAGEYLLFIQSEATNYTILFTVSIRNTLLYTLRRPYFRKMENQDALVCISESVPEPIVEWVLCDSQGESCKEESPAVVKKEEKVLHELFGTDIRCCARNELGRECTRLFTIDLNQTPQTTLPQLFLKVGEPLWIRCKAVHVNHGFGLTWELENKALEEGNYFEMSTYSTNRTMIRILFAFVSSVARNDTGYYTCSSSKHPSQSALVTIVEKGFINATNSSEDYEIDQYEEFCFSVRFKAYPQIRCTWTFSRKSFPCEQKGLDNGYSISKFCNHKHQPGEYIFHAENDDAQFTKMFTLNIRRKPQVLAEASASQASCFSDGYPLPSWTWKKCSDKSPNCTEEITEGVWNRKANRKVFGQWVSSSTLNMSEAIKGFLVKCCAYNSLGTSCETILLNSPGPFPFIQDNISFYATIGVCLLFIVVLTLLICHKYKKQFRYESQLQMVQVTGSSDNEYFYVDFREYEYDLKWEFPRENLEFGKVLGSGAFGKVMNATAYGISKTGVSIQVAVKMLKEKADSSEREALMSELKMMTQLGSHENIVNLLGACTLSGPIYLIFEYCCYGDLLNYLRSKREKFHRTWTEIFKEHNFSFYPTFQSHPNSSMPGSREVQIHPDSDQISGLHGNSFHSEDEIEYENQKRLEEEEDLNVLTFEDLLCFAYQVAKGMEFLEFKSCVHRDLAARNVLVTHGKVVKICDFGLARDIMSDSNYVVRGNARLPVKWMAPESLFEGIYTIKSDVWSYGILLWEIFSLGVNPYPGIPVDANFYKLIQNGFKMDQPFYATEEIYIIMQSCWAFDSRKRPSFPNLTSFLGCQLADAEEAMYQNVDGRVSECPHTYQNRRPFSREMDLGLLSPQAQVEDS
Protocol: Activity of compounds on FLT3 activating mutations were assessed using Ba/F3 cell lines (mouse pro-B cell line) stably expressing human FLT3-ITD, FLT3-ITD-D835Y or FLT3-ITD-F691L. […] The supernatant collected were concentrated with PEG8000 and used to infect Ba/F3 cells at 1-5 MOI in serum-free media with polybrene. Infected Ba/F3 cells were selected in presence of puromycin, and surviving cells verified by sequencing and/or protein detection assay. Constitutive expression of the activating kinase transforms the Ba/F3 cells into IL-3-independent growth allowing them to be cultured in the absence of IL-3. […] For use in compound testing, cells in exponential growth phase were harvested, counted, and resuspended at the required cell density. Cell viability assays were performed in 96-well assay plates and 90 μL of cell suspension seeded per well. Serial dilutions of the test compounds and assay controls and were freshly prepared for the assay. Nine-point 3× serial dilutions were prepared in 100% DMSO (400× stock) and subsequently diluted in cell culture media to obtain 10× stocks. Ten microliters of the 10× stock serial dilutions were added to the appropriate wells (triplicate wells per condition) in the assay plate. […] Assay plates were incubated for 3 days in at 37° C. in a humidified incubator with 5% CO2.
Inhibition rate (IR) of the tested compounds was determined by the following formula: IR (%)=(1−(RLU compound−RLU blank)/(RLU control−RLU blank))*100%. The inhibitions of different dose of compound were calculated in Excel file, and the dose responses were analysed using GraphPad Prism to evaluate related parameters, such as Bottom, Top and IC50. For the IC50 analysis by GraphPad Prism, the equation below was used to fit curve: Y=Bottom+(Top−Bottom)/(1+10^((LogIC50−X)*HillSlope))

Row | SMILES | IC50 (K-562) [µM] | GI50 [1] [µM]
1 | CCc1nc(C(N)=O)c(Nc2cccc(CCNC(=O)[C@H](C)N(C)C(=O)/C=C/CN(C)C)c2)nc1N(C)C(C)C [Compound 204, (S,E)-3-((3-(2-(2-(4-(dimethylamino)-N-methylbut-2-enamido)propanamido)ethyl)phenyl)amino)-6-ethyl-5-(isopropyl(methyl)amino)pyrazine-2-carboxamide] | > 0.5 | 0.001 to 0.01
2 | CCc1nc(C(N)=O)c(Nc2cccc(CCNC(=O)[C@H](C)N(C)C(=O)/C=C/CN(C)C)c2)nc1NC(C)C [Compound 205, (S,E)-3-((3-(2-(2-(4-(dimethylamino)-N-methylbut-2-enamido)propanamido)ethyl)phenyl)amino)-6-ethyl-5-(isopropylamino)pyrazine-2-carboxamide] | > 0.5 | < 0.001
3 | CCc1nc(C(N)=O)c(Nc2cccc(CCNC(=O)CN(C)C(=O)/C=C/CN(C)C)c2)nc1C1CC1 [Compound 219, (E)-5-cyclopropyl-3-((3-(2-(2-(4-(dimethylamino)-N-methylbut-2-enamido)acetamido)ethyl)phenyl)amino)-6-ethylpyrazine-2-carboxamide] | > 0.5 | 0.001 to 0.01
4 | Cc1nc(C(N)=O)c(Nc2cccc(CCNC(=O)[C@H](C)N(C)C(=O)/C=C/CN(C)C)c2)nc1N(C)C(C)C [Compound 232, (S, E)-3-((3-(2-(2-(4-(dimethylamino)-N-methylbut-2-enamido)propanamido)ethyl)phenyl)amino)-5-(isopropyl (methyl)amino)-6-methylpyrazine-2-carboxamide] | > 0.5 | 0.001 to 0.01
5 | Cc1nc(C(N)=O)c(Nc2cccc(CCNC(=O)CN(C)C(=O)/C=C/CN(C)C)c2)nc1N(C)C(C)C [Compound 250, (E)-3-((3-(2-(2-(4-(dimethylamino)-N-methylbut-2-enamido)acetamido)ethyl)phenyl)amino)-5-(isopropyl(methyl)amino)-6-methylpyrazine-2-carboxamide] | > 0.5 | 0.001 to 0.01
6 | CCc1nc(C(N)=O)c(Nc2cccc(CCNC(=O)CN(C)C(=O)/C=C/CN(C)C)c2)nc1N(C)CC [Compound 252, (E)-3-((3-(2-(2-(4-(dimethylamino)-N-methylbut-2-enamido)acetamido)ethyl)phenyl)amino)-6-ethyl-5-(ethyl (methyl)amino) pyrazine-2-carboxamide] | > 0.5 | < 0.001
7 | CCc1nc(C(N)=O)c(Nc2cccc(CCNC(=O)[C@H](C)N(C)C(=O)/C=C/CNC)c2)nc1N(C)C(C)C [Compound 307, (S,E)-6-ethyl-5-(isopropyl(methyl)amino)-3-((3-(2-(2-(N-methyl-4-(methylamino)but-2-enamido)propanamido)ethyl)phenyl)amino)pyrazine-2-carboxamide] | – | 0.001 to 0.01
8 | CCc1nc(C(N)=O)c(Nc2ccnc(CCNC(=O)[C@H](C)N(C)C(=O)/C=C/CN(C)C)c2)nc1C1CC1 [Compound 310, (S,E)-5-cyclopropyl-3-((2-(2-(2-(4-(dimethylamino)-N-methylbut-2-enamido)propanamido)ethyl)pyridin-4-yl)amino)-6-ethylpyrazine-2-carboxamide] | > 0.5 | 0.001 to 0.01
9 | CCc1nc(C(N)=O)c(Nc2cccc([C@@H](C)CNC(=O)CN(C)C(=O)/C=C/CN(C)C)c2)nc1C1CC1 [Compound 504, (R,E)-5-cyclopropyl-3-((3-(1-(2-(4-(dimethylamino)-N-methylbut-2-enamido)acetamido)propan-2-yl)phenyl)amino)-6-ethylpyrazine-2-carboxamide] | > 0.5 | 0.001 to 0.01
10 | CCc1nc(C(N)=O)c(Nc2cccc([C@@H](C)CNC(=O)CN(C)C(=O)/C=C/CN3CCC3)c2)nc1C1CC1 [Compound 506, (R,E)-3-((3-(1-(2-(4-(azetidin-1-yl)-N-methylbut-2-enamido)acetamido)propan-2-yl)phenyl)amino)-5-cyclopropyl-6-ethylpyrazine-2-carboxamide] | > 0.5 | 0.001 to 0.01
11 | CCCc1nc(Nc2cccc([C@@H](C)CNC(=O)CN(C)C(=O)/C=C/CN3CCC3)c2)c(C(N)=O)nc1CC [Compound 507, (R,E)-3-((3-(1-(2-(4-(azetidin-1-yl)-N-methylbut-2-enamido)acetamido)propan-2-yl)phenyl)amino)-6-ethyl-5-propylpyrazine-2-carboxamide] | > 0.5 | 0.001 to 0.01
12 | CCc1nc(Nc2cccc([C@@H](C)CNC(=O)CN(C)C(=O)/C=C/CN3CCC3)c2)c(C(N)=O)nc1CC [Compound 508, (R, E)-3-((3-(1-(2-(4-(azetidin-1-yl)-N-methylbut-2-enamido)acetamido)propan-2-yl)phenyl)amino)-5,6-diethylpyrazine-2-carboxamide] | > 0.5 | 0.001 to 0.01
13 | CCc1nc(C(N)=O)c(Nc2cc(F)cc(CCNC(=O)CN(C)C(=O)/C=C/CN3CCC3)c2)nc1C1CC1 [Compound 516, (E)-3-((3-(2-(2-(4-(azetidin-1-yl)-N-methylbut-2-enamido)acetamido)ethyl)-5-fluorophenyl)amino)-5-cyclopropyl-6-ethylpyrazine-2-carboxamide] | > 0.5 | 0.001 to 0.01
14 | CCc1nc(C(N)=O)c(Nc2cccc(CCNC(=O)CN(C)C(=O)/C=C/CN3CCC3)c2)nc1N(C)CC [Compound 516A, (E)-3-((3-(2-(2-(4-(azetidin-1-yl)-N-methylbut-2-enamido)acetamido)ethyl)phenyl)amino)-6-ethyl-5-(ethyl(methyl)amino) pyrazine-2-carboxamide] | > 0.5 | 0.001 to 0.01
15 | CCc1nc(C(N)=O)c(Nc2cccc([C@@H](C)CNC(=O)CN(C)C(=O)/C=C/CN3CCC3)c2)nc1N(C)CC [Compound 518, (R,E)-3-((3-(1-(2-(4-(azetidin-1-yl)-N-methylbut-2-enamido)acetamido)propan-2-yl)phenyl)amino)-6-ethyl-5-(ethyl(methyl)amino)pyrazine-2-carboxamide] | > 0.5 | 0.001 to 0.01
16 | CCOc1nc(Nc2cccc(CCNC(=O)CN(C)C(=O)/C=C/CN3CCC3)c2)c(C(N)=O)nc1CC [Compound 602, (E)-3-((3-(2-(2-(4-(azetidin-1-yl)-N-methylbut-2-enamido)acetamido)ethyl)phenyl)amino)-5-ethoxy-6-ethylpyrazine-2-carboxamide] | > 0.5 | 0.001 to 0.01
17 | CCc1nc(C(N)=O)c(Nc2cccc(CCNC(=O)CN(C)C(=O)/C=C/CN3CCC3)c2)nc1OC(C)C [Compound 603, (E)-3-((3-(2-(2-(4-(azetidin-1-yl)-N-methylbut-2-enamido)acetamido)ethyl)phenyl)amino)-6-ethyl-5-isopropoxypyrazine-2-carboxamide] | > 0.5 | 0.001 to 0.01
18 | CCc1nc(C(N)=O)c(Nc2ccc(N3CCC(N4CCN(C)CC4)CC3)c(OC)c2)nc1NC1CCOCC1 [Gilteritinib, gilteritinib, reference compound] | 0.1 to 0.5 | –
